Measured values published in US11840526B2, “Compounds and method for preparing the same” (BEIJING GRAND JOHAMU PHARMACEUTICAL COMPANY, LTD., priority 2022, dated 2023).

Assay: Powder characteristics (Carr index, anti-caking property, fluidity) by intelligent powder comprehensive characteristic tester
Assay type: physicochemical
Set-up: key to Fluidity: Good: “good” means good solid state and good fluidity, which is favorable for formulation development; Less good: “less good” means average fluidity; Poor: “poor” means poor fluidity, which cannot be used for formulation development; key to Anti-caking property: Good: “good” means substantially no agglomeration or clumping; Less good: “less good” means partial clumping or agglomeration; Poor: “poor” means severe or complete clumping
Text: The performance of the drug powder is influenced by various factors, among which the fluidity, anti-caking property and the like of the starting material drug (i.e., active pharmaceutical ingredient) play a key role in the formulation design, the quality control, the process design, the industrial production and the like of the drug. In the pharmaceutical field, poor fluidity mainly affects the uniformity of the mixed material, and such mixed material is easy to delaminate and has uneven material content; at the same time, the resulting tablet are easy to delaminate during tableting, resulting in inconsistent content of the tablet pressed at different times, and it is easy to cause a significant difference in tablet weight.
The fluidity, the anti-caking property and the like of compound 1 (i.e., (6E)-6-[(6-chloro-2-methyl-2H-indazol-5-yl)imino]-3-[(1-methyl-1H-1,2,4-triazol-3-yl)methyl]-1-(2,4,5-trifluorobenzyl)-1,3,5-triazinane-2,4-dione with different purities) in the above Comparative Examples 1-2 and Examples 1-12 were measured by an intelligent powder comprehensive characteristic tester (HMKTest LABULK, model: HMKFlow 6393 PT1000).
The Carr index reflects the quality of the fluidity, and a smaller value indicates better fluidity, while a Carr index of more than 23% generally indicates poor fluidity. For anti-caking property, “good” means substantially no agglomeration or clumping, “less good” means partial clumping or agglomeration, and “poor” means severe or complete clumping. For fluidity, “good” means good solid state and good fluidity, which is favorable for formulation development; “less good” means average fluidity; and “poor” means poor fluidity, which cannot be used for formulation development.
Similarly, the fluidity of the fumarate salt solid form of compound 1 prepared in the above Examples 28-29 and Comparative Example 3 was measured.

[1] = solid form of compound 1, smaller value = better fluidity, more than 23% generally indicates poor fluidity
[2] = fumarate salt solid form of compound 1

| SMILES | Anti-caking property (solid form of compound 1) | Fluidity (solid form of compound 1) | Carr index (%) [1] | Anti-caking property [2] | Carr index (%) [2] | Fluidity [2] |
| --- | --- | --- | --- | --- | --- | --- |
| Cn1cnc(Cn2c(=O)[nH]/c(=N\c3cc4cn(C)nc4cc3Cl)n(Cc3cc(F)c(F)cc3F)c2=O)n1 [Example 6, (6E)-6-[(6-chloro-2-methyl-2H-indazol-5-yl)imino]-3-[(1-methyl-1H-1,2,4-triazol-3-yl)methyl]-1-(2,4,5-trifluorobenzyl)-1,3,5-triazinane-2,4-dione] | Less good | Good | 18.5% |  |  |  |
| Cn1cnc(Cn2c(=O)[nH]/c(=N\c3cc4cn(C)nc4cc3Cl)n(Cc3cc(F)c(F)cc3F)c2=O)n1 [Example 3, (6E)-6-[(6-chloro-2-methyl-2H-indazol-5-yl)imino]-3-[(1-methyl-1H-1,2,4-triazol-3-yl)methyl]-1-(2,4,5-trifluorobenzyl)-1,3,5-triazinane-2,4-dione] | Less good | Good | 18.7% |  |  |  |
| Cn1cnc(Cn2c(=O)[nH]/c(=N\c3cc4cn(C)nc4cc3Cl)n(Cc3cc(F)c(F)cc3F)c2=O)n1 [Comparative Example 3, (6E)-6-[(6-chloro-2-methyl-2H-indazol-5-yl)imino]-3-[(1-methyl-1H-1,2,4-triazol-3-yl)methyl]-1-(2,4,5-trifluorobenzyl)-1,3,5-triazinane-2,4-dione, reference compound] |  |  |  | poor and Poor | 36.1% | poor and Poor |
| Cn1cnc(Cn2c(=O)[nH]/c(=N\c3cc4cn(C)nc4cc3Cl)n(Cc3cc(F)c(F)cc3F)c2=O)n1 [Example 11, (6E)-6-[(6-chloro-2-methyl-2H-indazol-5-yl)imino]-3-[(1-methyl-1H-1,2,4-triazol-3-yl)methyl]-1-(2,4,5-trifluorobenzyl)-1,3,5-triazinane-2,4-dione] | Good | Good | 14.1% |  |  |  |
| Cn1cnc(Cn2c(=O)[nH]/c(=N\c3cc4cn(C)nc4cc3Cl)n(Cc3cc(F)c(F)cc3F)c2=O)n1 [Example 9, (6E)-6-[(6-chloro-2-methyl-2H-indazol-5-yl)imino]-3-[(1-methyl-1H-1,2,4-triazol-3-yl)methyl]-1-(2,4,5-trifluorobenzyl)-1,3,5-triazinane-2,4-dione] | Good | Good | 12.6% |  |  |  |
| Cn1cnc(Cn2c(=O)[nH]/c(=N\c3cc4cn(C)nc4cc3Cl)n(Cc3cc(F)c(F)cc3F)c2=O)n1.O=C(O)/C=C/C(=O)O [Example 28, (6E)-6-[(6-chloro-2-methyl-2H-indazol-5-yl)imino]-3-[(1-methyl-1H-1,2,4-triazol-3-yl)methyl]-1-(2,4,5-trifluorobenzyl)-1,3,5-triazinane-2,4-dione fumarate salt] |  |  |  | Good | 11.3% | Good |
| Cn1cnc(Cn2c(=O)[nH]/c(=N\c3cc4cn(C)nc4cc3Cl)n(Cc3cc(F)c(F)cc3F)c2=O)n1 [Example 7, (6E)-6-[(6-chloro-2-methyl-2H-indazol-5-yl)imino]-3-[(1-methyl-1H-1,2,4-triazol-3-yl)methyl]-1-(2,4,5-trifluorobenzyl)-1,3,5-triazinane-2,4-dione] | Less good | Good | 17.1% |  |  |  |
| Cn1cnc(Cn2c(=O)[nH]/c(=N\c3cc4cn(C)nc4cc3Cl)n(Cc3cc(F)c(F)cc3F)c2=O)n1 [Example 2, (6E)-6-[(6-chloro-2-methyl-2H-indazol-5-yl)imino]-3-[(1-methyl-1H-1,2,4-triazol-3-yl)methyl]-1-(2,4,5-trifluorobenzyl)-1,3,5-triazinane-2,4-dione] | Less good | Good | 20.7% |  |  |  |
| Cn1cnc(Cn2c(=O)[nH]/c(=N\c3cc4cn(C)nc4cc3Cl)n(Cc3cc(F)c(F)cc3F)c2=O)n1 [Example 1, (6E)-6-[(6-chloro-2-methyl-2H-indazol-5-yl)imino]-3-[(1-methyl-1H-1,2,4-triazol-3-yl)methyl]-1-(2,4,5-trifluorobenzyl)-1,3,5-triazinane-2,4-dione] | Less good | Good | 21.4% |  |  |  |
| Cn1cnc(Cn2c(=O)[nH]/c(=N\c3cc4cn(C)nc4cc3Cl)n(Cc3cc(F)c(F)cc3F)c2=O)n1 [Example 8, (6E)-6-[(6-chloro-2-methyl-2H-indazol-5-yl)imino]-3-[(1-methyl-1H-1,2,4-triazol-3-yl)methyl]-1-(2,4,5-trifluorobenzyl)-1,3,5-triazinane-2,4-dione] | Less good | Good | 21.2% |  |  |  |
| Cn1cnc(Cn2c(=O)[nH]/c(=N\c3cc4cn(C)nc4cc3Cl)n(Cc3cc(F)c(F)cc3F)c2=O)n1 [Example 29, (6E)-6-[(6-chloro-2-methyl-2H-indazol-5-yl)imino]-3-[(1-methyl-1H-1,2,4-triazol-3-yl)methyl]-1-(2,4,5-trifluorobenzyl)-1,3,5-triazinane-2,4-dione] |  |  |  | Less good | 12.1% | Good |
| Cn1cnc(Cn2c(=O)[nH]/c(=N\c3cc4cn(C)nc4cc3Cl)n(Cc3cc(F)c(F)cc3F)c2=O)n1 [Example 4, (6E)-6-[(6-chloro-2-methyl-2H-indazol-5-yl)imino]-3-[(1-methyl-1H-1,2,4-triazol-3-yl)methyl]-1-(2,4,5-trifluorobenzyl)-1,3,5-triazinane-2,4-dione] | Less good | Good | 19.4% |  |  |  |
| Cn1cnc(Cn2c(=O)[nH]/c(=N\c3cc4cn(C)nc4cc3Cl)n(Cc3cc(F)c(F)cc3F)c2=O)n1 [Example 12, (6E)-6-[(6-chloro-2-methyl-2H-indazol-5-yl)imino]-3-[(1-methyl-1H-1,2,4-triazol-3-yl)methyl]-1-(2,4,5-trifluorobenzyl)-1,3,5-triazinane-2,4-dione] | Good | Good | 15.1% |  |  |  |
| Cn1cnc(Cn2c(=O)[nH]/c(=N\c3cc4cn(C)nc4cc3Cl)n(Cc3cc(F)c(F)cc3F)c2=O)n1 [Example 10, (6E)-6-[(6-chloro-2-methyl-2H-indazol-5-yl)imino]-3-[(1-methyl-1H-1,2,4-triazol-3-yl)methyl]-1-(2,4,5-trifluorobenzyl)-1,3,5-triazinane-2,4-dione] | Good | Good | 13.4% |  |  |  |
| Cn1cnc(Cn2c(=O)[nH]/c(=N\c3cc4cn(C)nc4cc3Cl)n(Cc3cc(F)c(F)cc3F)c2=O)n1 [Comparative Example 1, (6E)-6-[(6-chloro-2-methyl-2H-indazol-5-yl)imino]-3-[(1-methyl-1H-1,2,4-triazol-3-yl)methyl]-1-(2,4,5-trifluorobenzyl)-1,3,5-triazinane-2,4-dione, reference compound] | Poor | Poor | 42.1% |  |  |  |
| Cn1cnc(Cn2c(=O)[nH]/c(=N\c3cc4cn(C)nc4cc3Cl)n(Cc3cc(F)c(F)cc3F)c2=O)n1 [Comparative Example 2, (6E)-6-[(6-chloro-2-methyl-2H-indazol-5-yl)imino]-3-[(1-methyl-1H-1,2,4-triazol-3-yl)methyl]-1-(2,4,5-trifluorobenzyl)-1,3,5-triazinane-2,4-dione, reference compound] | Poor | Poor | 39.4% |  |  |  |
| Cn1cnc(Cn2c(=O)[nH]/c(=N\c3cc4cn(C)nc4cc3Cl)n(Cc3cc(F)c(F)cc3F)c2=O)n1 [Example 5, (6E)-6-[(6-chloro-2-methyl-2H-indazol-5-yl)imino]-3-[(1-methyl-1H-1,2,4-triazol-3-yl)methyl]-1-(2,4,5-trifluorobenzyl)-1,3,5-triazinane-2,4-dione] | Less good | Good | 18.8% |  |  |  |
